Test results taken from US9757358B2 (priority 2010, dated 2017).

Tests used:
opioid analgesia = settings: Chichenkov et al. 1985; cited from earlier work
morphine dependence = settings: cited from earlier work
[1] = test system: post-operative pain in rats (thermal hyperalgesia); test: Thermal hyperalgesia (Ugo Basile plantar test) after plantar incision, post-operative pain in rats; format: in vivo, rat; settings: given 3.5 h after surgery
[2] = test system: post-operative pain in rats (mechanical allodynia); settings: rat, in vivo
sigma 2 (σ-2) site = sigma 2 (σ-2) site (Homo sapiens, UniProt Q5BJF2); settings: cited from earlier work
sigma 2 (σ-2) site, sequence (Q5BJF2 whole entry): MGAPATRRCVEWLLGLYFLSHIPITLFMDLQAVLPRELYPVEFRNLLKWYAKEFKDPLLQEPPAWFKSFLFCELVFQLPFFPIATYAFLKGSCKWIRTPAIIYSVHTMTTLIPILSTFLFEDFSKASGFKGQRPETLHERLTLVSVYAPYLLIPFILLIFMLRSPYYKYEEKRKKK

Compound: O=C(CCCN1CCC(O)(c2ccc(Cl)cc2)CC1)c1ccc(F)cc1 [Haloperidol, haloperidol]
- effect on activity of opioids and opiates (morphine, DADL, bremazocine) (opioid analgesia): potentiates the activity of different opioids and opiates

Compound: COc1ccc(CCN2CCN(CCCc3ccccc3)CC2)cc1OC [SA4503]
- effect on addiction to morphine (morphine dependence; morphine-induced place preference, Nomura et al. 1999): modulatory effect on addiction to morphine

Compound: Cc1cc(OCCN2CCOCC2)nn1-c1ccc2ccccc2c1 [compound 63, 4-{2-[5-Methyl-1-(naphthalen-2-yl)-1H-pyrazol-3-yloxy]ethyl}morpholine]
- effect on tramadol analgesia ([1]; compound 63 5, 10, 20, 40 mg/kg + tramadol 1.25 mg/kg): enhances tramadol analgesia
- effect on morphine analgesia ([1]; compound 63 10, 20, 40, 80 mg/kg + morphine 0.625 mg/kg): enhances morphine analgesia
- effect on buprenorphine analgesia [2]: enhances buprenorphine analgesia
- effect on morphine analgesia [2]: enhances morphine analgesia
- effect on oxycodone analgesia [2]: enhances oxycodone analgesia
- effect on tapentadol analgesia [2]: enhances tapentadol analgesia
- effect on tramadol analgesia [2]: enhances tramadol analgesia

Compound: SKF 10047
- affinity for the sigma 2 site (sigma 2 (σ-2) site): micromolar affinity

Compound: dehydroepiandrosterone sulfate [DHEA]
- effect on development of morphine dependence (morphine dependence; Noda et al. 2001): some capacity to attenuate the development of morphine dependence
